# Results: patent US20240239765A1, “GLYCINE N-METHYLTRANSFERASE SPECIFIC ENHANCER AND PREPARATION METHOD AND USES THEREOF” (KAOHSIUNG MEDICAL UNIVERSITY, priority 2020, published 2024)
# Key:
# p27 mRNA = p27 mRNA expression in Huh7 cells (qRT-PCR); assay type: cell-based, Human; conditions: after K117 treatment
# Experimental: (§1) RNA was isolated by using Trizol reagent (Life Technologies) according to the manufacturer's protocol. Cellular RNA was reverse transcribed into complementary DNA using a SuperScript II RNase H-Reverse Transcriptase Kit (Life Technologies). PCR reactions were carried out using a Super Script II Reverse Transcriptase Kit (Invitrogen Inc., Carlsbad, CA, USA) on an Applied Biosystems Step-One-plus real-time PCR system (Applied Biosystems, Foster City, CA, USA). The mRNA level of TATA-box binding protein (TBP) was used as an internal control. The primer pairs used for qRT-PCR were: • TBP forward: SEQ ID NO: 1, • reverse: SEQ ID NO: 2, • MYC forward: SEQ ID NO: 3, • reverse: SEQ ID NO: 4, • p21 forward: SEQ ID NO: 5, • reverse: SEQ ID NO: 6, • p27 forward: SEQ ID NO: 7, • reverse: SEQ ID NO: 8, • GNMT forward: SEQ ID NO: 9, and • reverse: SEQ ID NO: 10.
# MYC mRNA = MYC mRNA expression in Huh7 cells (qRT-PCR); assay type: cell-based, Human
# Experimental: as §1
# PC3 = experiment: Cell viability, prostate cancer cell line PC3; assay type: cell-based; conditions: Homo sapiens, PC-3
# Experimental: (§2) Human liver cancer cell lines (Huh7 and HepG2), human pancreatic cancer cell line (PANC1) and prostate cancer cell line (PC3) were cultured in Dulbecco's modified Eagle's medium (DMEM) supplemented with 10% fetal bovine serum (FBS) (HyClone, Logan, UT, USA), L-glutamine (2 mM), streptomycin (100 μg/mL), penicillin (100 U/mL) and nonessential amino acids (0.1 mM). Human pancreatic cancer cell line BxPC3 was cultured in the medium of Roswell Park Memorial Institute (RPMI) 1640 with the same supplements as in DMEM. All cell lines were maintained at 37 °C in a humidified CO2 incubator. H7GPL stable cells established by lentiviral-system was grown in DMEM supplemented with 1 μg/mL puromycin. The sorafenib were purchased from Sigma-Aldrich (St Louis, MO, USA).
# (§3) Huh7, HepG2, PANC1, PC3, and BxPC3 cells were seeded in 96-well plates for 24 hours and exposed to the drugs with various concentrations. AlamarBlue® was added in to the cells and further incubated for 4 hours to assess the cytotoxic effect of the tested drugs. Blank wells (without cells) containing the same amount of test substances were used for background subtraction, and the relative number of viable cells were represented as the percentage of the mean of the relative solvent controls. AlamarBlue® assay (AbD Serotec, Oxford, UK) was used to assess cell viability according to the manufacturer's instructions.
# p21 mRNA = p21 mRNA expression in Huh7 cells (qRT-PCR); assay type: cell-based, Human; conditions: after K117 treatment
# Experimental: as §1
# GNMT protein = experiment: Endogenous GNMT protein in Huh7 cells (immunoblotting); assay type: cell-based, Human
# Experimental: (§4) Cells or xenograft tumors were harvested for lysate preparation by using RIPA buffer containing protease inhibitor cocktail (Roche Molecular Biochemicals) and phosphatase inhibitors (10 mM Na3VO4, 1 mM NaF, 5 mM NaPPi). Protein concentrations were quantified by Bio-Rad Protein Assay (Bio-Rad) and immunoblotting was carried out as previous description (Yen et al., 2012). Anti-MYC (D84C12, Cell Signaling Technology), anti-GNMT (YMAC-Bioteck) and anti-β-actin (AC-15, Sigma-Aldrich) antibodies were used according to the descriptions in manufacturer's instructions.
# BxPC3 = experiment: Cell viability, pancreatic cancer cell line BxPC3; assay type: cell-based; conditions: Homo sapiens, BXPC-3; BxPC3, pancreas
# Experimental: as §2, §3
# GNMT mRNA = experiment: Endogenous GNMT mRNA in Huh7 cells (qRT-PCR); assay type: cell-based, Human
# Experimental: as §1
# PANC1 = experiment: Cell viability, pancreatic cancer cell line PANC1; assay type: cell-based; conditions: Homo sapiens, PANC-1; PANC1, pancreas
# Experimental: as §2, §3
# Huh7 and HepG2 cells = experiment: Colony formation assay; assay type: cell-based, Human
# MYC protein = MYC protein in Huh7 xenograft tumors (immunoblotting); assay type: in vivo; conditions: Huh7 xenograft tumors of treated mice
# Experimental: as §4
# All animal experiments were reviewed and approved by the Institutional Animal Care and Use Committee of Kaohsiung Medical University, and performed in accordance with relevant guidelines. Five to six-week-old male NOD-SCID mice were subcutaneously injected with Huh7 cells (1×10^6) in the right flank. Upon detection of palpable tumor, mice were randomly grouped and treated with 300 mpk, 100 mpk or 25 mpk of LKY4606D or KYT5397 and drug vehicle orally every day for 28 days. For K117, doses of 10 mpk and 25 mpk were used. For Sorafenib, dose of 25 mpk was used. Tumor growth was monitored (every day or three times per week) by measuring the length (L) and the width (W) of the tumor using Vernier caliper. Tumor volume (TV) was calculated by using the formula: volume=(L×W^2)/2. […]
# [1] = system: liver cancer cell lines (Huh7, Hep3B, HepG2); experiment: Cell proliferation in liver cancer cell lines; assay type: cell-based, Human
# Experimental: as §3
# [2] = system: −1812/+14 GNMT promoter-luciferase reporter cell line H7GPL; experiment: GNMT induction capacity assay (GNMT promoter-luciferase reporter, H7GPL cells); assay type: cell-based, Human; conditions: for Relative Luciferase Activity (induction capacity): H7GPL cells
# Experimental: A −1812/+14 GNMT promoter-luciferase reporter cell line H7GPL was constructed. For the primary analysis, H7GPL cells seeded in 96-well plates were treated with individual drugs of 10 μM for 24 hours and then were lysed for the luciferase activity assay using Luciferase Assay System (Promega, Madison, WI, USA). Then, the secondary analysis was performed using the compounds with different doses. The same confirmed hits were used for cytotoxicity by using alamarBlue® reagent (AbD serotec, Oxford, UK). The cytotoxicity was measured according to the manufacturer's recommendation. Top hits were used for further studies.
# DU145 = experiment: Cell viability, prostate cancer cell line DU145; assay type: cell-based; conditions: Homo sapiens, DU-145
# Huh7 xenograft tumor = assay type: in vivo
# From the text: All animal experiments were reviewed and approved by the Institutional Animal Care and Use Committee of Kaohsiung Medical University, and performed in accordance with relevant guidelines. Five to six-week-old male NOD-SCID mice were subcutaneously injected with Huh7 cells (1×10^6) in the right flank. Upon detection of palpable tumor, mice were randomly grouped and treated with 300 mpk, 100 mpk or 25 mpk of LKY4606D or KYT5397 and drug vehicle orally every day for 28 days. For K117, doses of 10 mpk and 25 mpk were used. For Sorafenib, dose of 25 mpk was used. Tumor growth was monitored (every day or three times per week) by measuring the length (L) and the width (W) of the tumor using Vernier caliper. Tumor volume (TV) was calculated by using the formula: volume=(L×W^2)/2. All drugs were dissolved in 0.5% carboxymethyl cellulose sodium salt.
# GNMT expression / MYC = conditions: pathogenesis of liver cancer, known; cited from earlier work
smiles,measurement,setting,value
"C/C(=N\NC(=O)c1cccnc1N)c1ccccn1 [K117, N′-(1-(pyridin-2-yl)ethylidene)-2-carbohydrazide]",p27 mRNA expression,p27 mRNA,increased
same,MYC mRNA expression,MYC mRNA,suppressed c-Myc mRNA expression dose-dependently
same,IC50,PC3,15.3 µM
same,p21 mRNA expression,p21 mRNA,increased
same,Endogenous GNMT expression at protein level,GNMT protein,induced
same,IC50,BxPC3,1.2 µM
same,Endogenous GNMT expression at mRNA level,GNMT mRNA,induced
same,IC50,PANC1,2.2 µM
same,Colony formation,Huh7 and HepG2 cells,reduced the colony formation of Huh7 and HepG2 cells in a dose-dependent manner
same,MYC protein expression in xenograft tumors,MYC protein,reduced
same,Proliferation of liver cancer cells,[1],inhibited proliferation of all tested liver cancer cells in a dose-dependent manner
same,Relative Luciferase Activity (induction capacity),[2]; 5.0 μM,6.52 ± 0.12
same,Relative Luciferase Activity (induction capacity),[2]; 10 μM,10.36 ± 0.35
same,Induction of GNMT expression compared with K78,[2]; SAR study,more effective than K78
same,Induction of luciferase activity / GNMT promoter activity,"[2]; dose response (FIG. 2B, 4B)",induced GNMT promoter activity in a dose-dependent manner
same,IC50,DU145,40.8 µM
same,Tumor growth versus control group,Huh7 xenograft tumor; K117 10 mpk and 25 mpk,significant tumor growth reduction
same,Tumor growth effect compared with Sorafenib,Huh7 xenograft tumor; K117 10 mpk vs Sorafenib 25 mpk,same effect as Sorafenib 25 mpk
"O=C(OC[C@H]1O[C@@H](OC(=O)c2cc(O)c(O)c(O)c2)[C@H](OC(=O)c2cc(O)c(O)c(O)c2)[C@@H](OC(=O)c2cc(O)c(O)c(O)c2)[C@@H]1OC(=O)c1cc(O)c(O)c(O)c1)c1cc(O)c(O)c(O)c1 [PGG, 1,2,3,4,6-penta-O-galloyl-Beta-D-glucopyranoside]",GNMT expression / MYC regulation,GNMT expression / MYC,enhanced GNMT expression through MYC downregulation
"CNC(=O)c1cc(Oc2ccc(NC(=O)Nc3ccc(Cl)c(C(F)(F)F)c3)cc2)ccn1 [Sorafenib, sorafenib, reference compound]",Tumor growth versus solvent control,"Huh7 xenograft tumor; oral, K78 25, 100, 300 mpk, sorafenib comparison control",most significant difference
